According to US20080227638A1, “Use of abscisic acid to enhance growth control” (priority 2007, published 2008):

Legend:
Assay type in all cases: in vivo
creeping bentgrass green = assay: Soil moisture of creeping bentgrass green, ABA and trinexapac-ethyl (Example 8); details: 25 ppm trinexapac-ethyl
Procedure: (§1) Field studies were conducted at the nursery green or the practice green at Countryside golf course (Mundelein, Ill.). Both greens were sand based and growing Penncross creeping bentgrass. Grass was managed with typical Illinois golf course management practices.
(§2) Chemical solutions were prepared with distilled water. Tween 20 (0.05% v/v) was used as an, adjuvant. Both trinexapac-ethyl (commercial product Primo Maxx, 11.3% active ingredient) and paclobutrazol (commercial product Trimmit 2SC, 22.3% active ingredient) were purchased from Syngenta Crop Protection Inc. (Greensboro, N.C.). Uniconazole-P (commercial product Sumagic, 0.55% active ingredient) was obtained from Valent U.S.A. Corporation (Walnut Creek, Calif.).
(§3) When treated with paclobutrazol or uniconazole-P, turfgrass received irrigation within 24 hours after application to flush chemicals to the root zone. After treatment, turfgrasses were arranged in a randomized complete block experimental design. Turfgrass quality, turfgrass height or clip fresh weight was measured on assigned dates. Turfgrass quality was visually rated on a 0-9 scale based on the color, uniformity and density of the grass with 0 as the worst and 9 as the best. Turfgrass height was measured as the distance between canopy surface and soil. Clips were collected from each plot; all plots were cut to a uniform height.
(§4) All experiments were randomized complete block experimental design. Data were analyzed by analysis of variance. Duncan's new multiple range tests at α=0.05 were used for mean separations.
(§5) Tween 20 (0.05% w/v) was included as an adjuvant.

Kentucky bluegrass = assay: Greenhouse Kentucky bluegrass height and quality, ABA and trinexapac-ethyl (Example 1); details: for Quality: visual 0-9 scale
Procedure: Greenhouse studies were conducted at the Research Farm of Valent BioSciences Corporation (Long Grove, Ill.). Grasses were grown in pots (18 cm in diameter and 18 cm in height) filled with Promix BX (available from Premier Horticulture Inc. Quakertown, Pa.). Grass was irrigated daily by an overhead irrigation system. The irrigation system was set up with multiple Tornado Mist Spray Heads (10 GPH at 40 PSI-Wetted diameter, NDS/Raindrip, Woodland Hills, Calif.). Spray heads were 1-meter apart from each other and 75 cm above grass canopy. Grass was cut with a scissor at 2.5 cm height and fertilizer (1 g/L all purpose fertilizer 20-20-20, available from The Scotts Company, Marysville, Ohio) was applied once per week.
as §2, §3, §4
Kentucky bluegrass sod (unknown variety) was purchased from Deak sod farms, Inc. (Union Grove, Wis.). Grass was grown in the greenhouse in pots (n=6 pots per treatment) for establishment before treatment. […] Tween 20 (0.05% w/v) was included as an adjuvant. Turfgrass canopy was not cut during the experimental period.

creeping bentgrass = assay: Golf course green creeping bentgrass height, ABA and trinexapac-ethyl (Example 4)
Procedure: as §1, §2, §3, §4, §5

[1] = test system: tomato (variety: Rutgers); assay: Tomato plant height, growth rate and leaf number (Example 9); details: for Leaf number: 15 days after treatment
Excerpt: (§6) Tomato (variety: Rutgers) seeds were sown in 18-cell flat filled with Promix PGX (available from Premier Horticulture Inc. Quakertown, Pa.) and grown for 3 weeks to allow for germination and initial growth. Plants were then transplanted into pots (18 cm in diameter and 18 cm in height), filled with Promix BX (available from Premier Horticulture Inc. Quakertown, Pa.), and grown for one week before the chemical treatment. Plants received daily irrigation and weekly fertilizer (1 g/L all purpose fertilizer 20-20-20, available from The Scotts Company, Marysville, Ohio).
(§7) During the chemical treatment, a 15 mL (2.5 mL/plant) solution was foliar sprayed on the tomato canopy. Leaf transpiration rates were measured using a LI-1600 Steady State Porometer (LI-Cor, Lincoln, Nebr.) at 1, 2, 3, 4, 7, 10 and 15 days after treatment. Leaf transpiration rate was normalized to the percentage of control plant to minimize the experimental errors caused by environmental factors. Plant height was measured at 0, 2, 4, 7, 10 and 15 days after treatment. Growth rate was calculated based on the changes of plant height in certain intervals. The plants were harvested and the leaf number was counted at 15 days after treatment.

[2] = test system: tomato (variety: Rutgers); assay: Tomato leaf transpiration, porometer (Example 9)
Excerpt: as §6, §7

[3] = 40 ppm trinexapac-ethyl, 23 days after treatment
[4] = 80 ppm trinexapac-ethyl, 23 days after treatment
[5] = 160 ppm trinexapac-ethyl, 23 days after treatment
[6] = 250 ppm trinexapac-ethyl, day 2 after treatment
[7] = 250 ppm trinexapac-ethyl, day 4 after treatment
[8] = 250 ppm trinexapac-ethyl, day 7 after treatment
[9] = 250 ppm trinexapac-ethyl, day 10 after treatment
[10] = 250 ppm trinexapac-ethyl, day 15 after treatment
[11] = 500 ppm trinexapac-ethyl, day 2 after treatment
[12] = 500 ppm trinexapac-ethyl, day 4 after treatment
[13] = 500 ppm trinexapac-ethyl, day 7 after treatment
[14] = 500 ppm trinexapac-ethyl, day 10 after treatment
[15] = 500 ppm trinexapac-ethyl, day 15 after treatment
[16] = 1000 ppm trinexapac-ethyl, day 2 after treatment
[17] = 1000 ppm trinexapac-ethyl, day 4 after treatment
[18] = 1000 ppm trinexapac-ethyl, day 7 after treatment
[19] = 1000 ppm trinexapac-ethyl, day 10 after treatment
[20] = 1000 ppm trinexapac-ethyl, day 15 after treatment
[21] = 2000 ppm trinexapac-ethyl, day 2 after treatment
[22] = 2000 ppm trinexapac-ethyl, day 4 after treatment
[23] = 2000 ppm trinexapac-ethyl, day 7 after treatment
[24] = 2000 ppm trinexapac-ethyl, day 10 after treatment
[25] = 2000 ppm trinexapac-ethyl, day 15 after treatment

Question: What does the source list for `CCOC(=O)C1CC(=O)C(=C(O)C2CC2)C(=O)C1` (stereo not shown) [trinexapac-ethyl]?
Answer: Soil moisture (creeping bentgrass green; 2 days after treatment): 11.2%; Soil moisture (creeping bentgrass green; 7 days after treatment): 12.7%; Turfgrass height (Kentucky bluegrass; 40 ppm trinexapac-ethyl, 7 days after treatment): 9.5 cm; Turfgrass height (Kentucky bluegrass; [3]): 18.0 cm; Quality (Kentucky bluegrass; [3]): 7.8; Turfgrass height (Kentucky bluegrass; 80 ppm trinexapac-ethyl, 7 days after treatment): 7.4 cm; Turfgrass height (Kentucky bluegrass; [4]): 17.3 cm; Quality (Kentucky bluegrass; [4]): 8.0; Turfgrass height (Kentucky bluegrass; 160 ppm trinexapac-ethyl, 7 days after treatment): 6.1 cm; Turfgrass height (Kentucky bluegrass; [5]): 13.3 cm; Quality (Kentucky bluegrass; [5]): 7.0; Turfgrass height (creeping bentgrass; 12.5 ppm trinexapac-ethyl, 7 days after treatment): 6.0 cm; Turfgrass height (creeping bentgrass; 12.5 ppm trinexapac-ethyl, 14 days after treatment): 8.5 cm; Turfgrass height (creeping bentgrass; 50 ppm trinexapac-ethyl, 7 days after treatment): 4.3 cm; Turfgrass height (creeping bentgrass; 50 ppm trinexapac-ethyl, 14 days after treatment): 5.5 cm; Leaf number ([1]; 250 ppm trinexapac-ethyl): 12.0; Plant height ([1]; 250 ppm trinexapac-ethyl, day 0 after treatment): 10.3 cm; Growth rate [1, 6]: 1.7 cm/day; Plant height [1, 6]: 13.6 cm; Growth rate [1, 7]: 1.5 cm/day; Plant height [1, 7]: 16.4 cm; Growth rate [1, 8]: 2.6 cm/day; Plant height [1, 8]: 28.7 cm; Growth rate [1, 9]: 2.2 cm/day; Plant height [1, 9]: 32.3 cm; Growth rate [1, 10]: 2.7 cm/day; Plant height [1, 10]: 50.6 cm; Leaf number ([1]; 500 ppm trinexapac-ethyl): 11.7; Plant height ([1]; 500 ppm trinexapac-ethyl, day 0 after treatment): 9.8 cm; Growth rate [1, 11]: 1.7 cm/day; Plant height [1, 11]: 13.1 cm; Growth rate [1, 12]: 1.5 cm/day; Plant height [1, 12]: 15.9 cm; Growth rate [1, 13]: 2.6 cm/day; Plant height [1, 13]: 28.3 cm; Growth rate [1, 14]: 2.2 cm/day; Plant height [1, 14]: 31.2 cm; Growth rate [1, 15]: 2.6 cm/day; Plant height [1, 15]: 50.7 cm; Leaf number ([1]; 1000 ppm trinexapac-ethyl): 11.7; Plant height ([1]; 1000 ppm trinexapac-ethyl, day 0 after treatment): 10.0 cm; Growth rate [1, 16]: 1.2 cm/day; Plant height [1, 16]: 12.3 cm; Growth rate [1, 17]: 1.4 cm/day; Plant height [1, 17]: 15.4 cm; Growth rate [1, 18]: 2.4 cm/day; Plant height [1, 18]: 26.7 cm; Growth rate [1, 19]: 2.1 cm/day; Plant height [1, 19]: 31.3 cm; Growth rate [1, 20]: 2.8 cm/day; Plant height [1, 20]: 52.7 cm; Leaf number ([1]; 2000 ppm trinexapac-ethyl): 11.5; Plant height ([1]; 2000 ppm trinexapac-ethyl, day 0 after treatment): 9.9 cm; Growth rate [1, 21]: 1.2 cm/day; Plant height [1, 21]: 12.2 cm; Growth rate [1, 22]: 1.5 cm/day; Plant height [1, 22]: 15.8 cm; Growth rate [1, 23]: 2.0 cm/day; Plant height [1, 23]: 23.9 cm; Growth rate [1, 24]: 2.0 cm/day; Plant height [1, 24]: 29.3 cm; Growth rate [1, 25]: 2.7 cm/day; Plant height [1, 25]: 50.6 cm; Transpiration ([2]; 250 ppm trinexapac-ethyl, day 1 after treatment): 91 % of control; Transpiration [2, 6]: 99 % of control; Transpiration ([2]; 250 ppm trinexapac-ethyl, day 3 after treatment): 91 % of control; Transpiration [2, 7]: 95 % of control; Transpiration [2, 8]: 100 % of control; Transpiration [2, 9]: 98 % of control; Transpiration [2, 10]: 98 % of control; Transpiration ([2]; 500 ppm trinexapac-ethyl, day 1 after treatment): 91 % of control; Transpiration [2, 11]: 95 % of control; Transpiration ([2]; 500 ppm trinexapac-ethyl, day 3 after treatment): 89 % of control; Transpiration [2, 12]: 96 % of control; Transpiration [2, 13]: 100 % of control; Transpiration [2, 14]: 99 % of control; Transpiration [2, 15]: 100 % of control; Transpiration ([2]; 1000 ppm trinexapac-ethyl, day 1 after treatment): 92 % of control; Transpiration [2, 16]: 96 % of control; Transpiration ([2]; 1000 ppm trinexapac-ethyl, day 3 after treatment): 91 % of control; Transpiration [2, 17]: 98 % of control; Transpiration [2, 18]: 100 % of control; Transpiration [2, 19]: 103 % of control; Transpiration [2, 20]: 99 % of control; Transpiration ([2]; 2000 ppm trinexapac-ethyl, day 1 after treatment): 95 % of control; Transpiration [2, 21]: 94 % of control; Transpiration ([2]; 2000 ppm trinexapac-ethyl, day 3 after treatment): 90 % of control; Transpiration [2, 22]: 98 % of control; Transpiration [2, 23]: 97 % of control; Transpiration [2, 24]: 99 % of control; Transpiration [2, 25]: 98 % of control
